Laboratory results from patent US5730962A, “Depigmenting cosmetic or dermatologic composition containing a benzofuran derivative and its use in depigmentating skin” (L'Oreal, priority 1991, dated 1998).

Test system: fungus tyrosinase
Test: in vitro inhibition test of the activity of tyrosinase (dopachrome formation, 475 nm)
Assay type: biochemical
Details: inhibitor at 50 molar percent relative to tyrosine; 0.1M phosphate buffer pH 6.5; 25° C.; optical density at 475 nm at plateau
From the text: Certain ones of the benzofuran derivatives have been comparatively studied with respect to hydroquinone, at molar equivalent amounts, in the in vitro inhibition test of the activity of tyrosinase.
According to this test the amount of dopachrome formed during the course of the reaction chain for the transformation of tyrosine into melanins is followed by visible spectrometry at 475 nm. These reactions are catalyzed, in vitro, by fungus tyrosinase, in the presence of a reducing co-substrate(for example, L-dopa in a small amount) to initiate the hydroxylation reaction of L-tyrosine into L-dopa, which is then catalytically oxidized into dopaquinone, then into dopachrome, produced intermediate before the non-enzymatic oxidation reactions terminating in the formation of melanins.
The concentration of dopachrome formed during the course of time in the presence and in the absence of the inhibitor is then measured.
The concentrations of inhibitors are fixed at 50 molar percent relative to the tyrosine concentration in the reaction medium.
The inhibition effect is expressed by the reduction of the maximum amount of dopachrome formed (optical density value at 475 nm read at the plateau of the curve) relative to the amount obtained in the absence of inhibitor.
A--0.1M phosphate buffer pH=6.5 (TWEEN 20 at 1%)
B--L-tyrosine mother solution at 2×10^-3 M in A
C--L-dopa mother solution at 10^-4 M in A
D--Fungus tyrosinase mother solution at 2,400 units/ml in A
E--Inhibitor mother solution at 10^-2 M in A (solutions C and D are prepared the same day).
Homogenize and equilibrate at 25° C.
rapidly mix and observe the kinetics by the measurement of the absorbance at 475 nm as a function of time.

Row | SMILES | % inhibitor (reduction of the maximum amount of dopachrome formed relative to the amount obtained in the absence of inhibitor)
1 | Oc1ccc2occc2c1 | 56%
2 | Oc1ccc2ccoc2c1 | 54%
3 | Oc1ccc2c(c1)OCC2 | 66%
4 | Oc1ccc(O)cc1 [hydroquinone, reference compound] | 33%
